PubChem BioAssay AID2060885 (Molecular Pharmacology Branch, DTP, NCI, 2025)

Test system: NCI-H23 complex spheroids with HUVEC/MSC, viability
Test: Anticancer human tumor NCI-H23 cell line growth inhibition [RAS];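 further: spheroids exposed to compound for 7 days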;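 on viability, T/C: 100% = DMSO vehicle control viability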
Conditions: for IC50: curve of first compound; for viability, T/C: stronger effect = lower value
Summary of the method: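 Agents were tested in combination matrices in half-log decrements from a top concentration at or near clinical Cmax (10 microM if undetermined). Targets were multi-cell spheroids of tumour lines plus HUVEC and MSC stromal cells.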

Compound: CC(=O)OC12COC1CC(O)C1(C)C(=O)C(O)C3=C(C)C(OC(=O)C(O)C(NC(=O)OC(C)(C)C)c4ccccc4)CC(O)(C(OC(=O)c4ccccc4)C21)C3(C)C (centres undefined) + CCn1c(-c2cc(N3CCN(C)CC3)cnc2C(C)OC)c2c3cc(ccc31)-c1csc(n1)CC(NC(=O)C1CC1C)C(=O)N1CCCC(N1)C(=O)OCC(C)(C)C2
- IC50 (second compound 0.000949 µM): < 0.0316 µM
- IC50 (second compound 0.003 µM): < 0.0316 µM
- IC50 (second compound 0.00949 µM): < 0.0316 µM
- IC50 (second compound 0.03 µM): < 0.0316 µM
- IC50 (second compound 0.0949 µM): < 0.0316 µM
- IC50 (second compound 0.3 µM): < 0.0316 µM
- viability, T/C (second compound 0.000949 µM, first compound 0.0316 µM): 13.9%
- viability, T/C (second compound 0.000949 µM, first compound 0.1 µM): 16.1%
- viability, T/C (second compound 0.000949 µM, first compound 0.316 µM): 14.7%
- viability, T/C (second compound 0.000949 µM, first compound 1 µM): 15.5%
- viability, T/C (second compound 0.000949 µM, first compound 3.16 µM): 21.5%
- viability, T/C (second compound 0.000949 µM, first compound 10 µM): 25.5%
- viability, T/C (second compound 0.003 µM, first compound 0.0316 µM): 11.9%
- viability, T/C (second compound 0.003 µM, first compound 0.1 µM): 12.4%
- viability, T/C (second compound 0.003 µM, first compound 0.316 µM): 11.6%
- viability, T/C (second compound 0.003 µM, first compound 1 µM): 12.1%
- viability, T/C (second compound 0.003 µM, first compound 3.16 µM): 17.1%
- viability, T/C (second compound 0.003 µM, first compound 10 µM): 19.4%
- viability, T/C (second compound 0.00949 µM, first compound 0.0316 µM): 12.5%
- viability, T/C (second compound 0.00949 µM, first compound 0.1 µM): 10.9%
- viability, T/C (second compound 0.00949 µM, first compound 0.316 µM): 11.6%
- viability, T/C (second compound 0.00949 µM, first compound 1 µM): 13.9%
- viability, T/C (second compound 0.00949 µM, first compound 3.16 µM): 15.8%
- viability, T/C (second compound 0.00949 µM, first compound 10 µM): 17.3%
- viability, T/C (second compound 0.03 µM, first compound 0.0316 µM): 11.4%
- viability, T/C (second compound 0.03 µM, first compound 0.1 µM): 11.7%
- viability, T/C (second compound 0.03 µM, first compound 0.316 µM): 12%
- viability, T/C (second compound 0.03 µM, first compound 1 µM): 12.5%
- viability, T/C (second compound 0.03 µM, first compound 3.16 µM): 16.4%
- viability, T/C (second compound 0.03 µM, first compound 10 µM): 19.9%
- viability, T/C (second compound 0.0949 µM, first compound 0.0316 µM): 10.7%
- viability, T/C (second compound 0.0949 µM, first compound 0.1 µM): 10.6%
- viability, T/C (second compound 0.0949 µM, first compound 0.316 µM): 10.4%
- viability, T/C (second compound 0.0949 µM, first compound 1 µM): 10.9%
- viability, T/C (second compound 0.0949 µM, first compound 3.16 µM): 12.4%
- viability, T/C (second compound 0.0949 µM, first compound 10 µM): 14.9%
- viability, T/C (second compound 0.3 µM, first compound 0.0316 µM): 10.1%
- viability, T/C (second compound 0.3 µM, first compound 0.1 µM): 8.97%
- viability, T/C (second compound 0.3 µM, first compound 0.316 µM): 10.4%
- viability, T/C (second compound 0.3 µM, first compound 1 µM): 8.98%
- viability, T/C (second compound 0.3 µM, first compound 3.16 µM): 12.6%
- viability, T/C (second compound 0.3 µM, first compound 10 µM): 14.2%

Compound: CCc1c2c(nc3ccc(O)cc13)-c1cc3c(c(=O)n1C2)COC(=O)[C@]3(O)CC + CCn1c(-c2cc(N3CCN(C)CC3)cnc2C(C)OC)c2c3cc(ccc31)-c1csc(n1)CC(NC(=O)C1CC1C)C(=O)N1CCCC(N1)C(=O)OCC(C)(C)C2
- IC50 (second compound 0.000949 µM): < 0.000949 µM
- IC50 (second compound 0.003 µM): < 0.000949 µM
- IC50 (second compound 0.00949 µM): < 0.000949 µM
- IC50 (second compound 0.03 µM): < 0.000949 µM
- IC50 (second compound 0.0949 µM): < 0.000949 µM
- IC50 (second compound 0.3 µM): < 0.000949 µM
- viability, T/C (second compound 0.000949 µM, first compound 0.000949 µM): 40.7%
- viability, T/C (second compound 0.000949 µM, first compound 0.003 µM): 21%
- viability, T/C (second compound 0.000949 µM, first compound 0.00949 µM): 4.92%
- viability, T/C (second compound 0.000949 µM, first compound 0.03 µM): 2.52%
- viability, T/C (second compound 0.000949 µM, first compound 0.0949 µM): 1.86%
- viability, T/C (second compound 0.000949 µM, first compound 0.3 µM): 0.88%
- viability, T/C (second compound 0.003 µM, first compound 0.000949 µM): 32.5%
- viability, T/C (second compound 0.003 µM, first compound 0.003 µM): 13.4%
- viability, T/C (second compound 0.003 µM, first compound 0.00949 µM): 4.98%
- viability, T/C (second compound 0.003 µM, first compound 0.03 µM): 1.97%
- viability, T/C (second compound 0.003 µM, first compound 0.0949 µM): 1.43%
- viability, T/C (second compound 0.003 µM, first compound 0.3 µM): 1.2%
- viability, T/C (second compound 0.00949 µM, first compound 0.000949 µM): 26.2%
- viability, T/C (second compound 0.00949 µM, first compound 0.003 µM): 11.2%
- viability, T/C (second compound 0.00949 µM, first compound 0.00949 µM): 5.03%
- viability, T/C (second compound 0.00949 µM, first compound 0.03 µM): 1.84%
- viability, T/C (second compound 0.00949 µM, first compound 0.0949 µM): 1.75%
- viability, T/C (second compound 0.00949 µM, first compound 0.3 µM): 1.2%
- viability, T/C (second compound 0.03 µM, first compound 0.000949 µM): 20.6%
- viability, T/C (second compound 0.03 µM, first compound 0.003 µM): 11.9%
- viability, T/C (second compound 0.03 µM, first compound 0.00949 µM): 5.17%
- viability, T/C (second compound 0.03 µM, first compound 0.03 µM): 2.36%
- viability, T/C (second compound 0.03 µM, first compound 0.0949 µM): 1.52%
- viability, T/C (second compound 0.03 µM, first compound 0.3 µM): 1.97%
- viability, T/C (second compound 0.0949 µM, first compound 0.000949 µM): 16%
- viability, T/C (second compound 0.0949 µM, first compound 0.003 µM): 10.9%
- viability, T/C (second compound 0.0949 µM, first compound 0.00949 µM): 4.9%
- viability, T/C (second compound 0.0949 µM, first compound 0.03 µM): 3.03%
- viability, T/C (second compound 0.0949 µM, first compound 0.0949 µM): 1.77%
- viability, T/C (second compound 0.0949 µM, first compound 0.3 µM): 2.09%
- viability, T/C (second compound 0.3 µM, first compound 0.000949 µM): 15.7%
- viability, T/C (second compound 0.3 µM, first compound 0.003 µM): 10.6%
- viability, T/C (second compound 0.3 µM, first compound 0.00949 µM): 4.9%
- viability, T/C (second compound 0.3 µM, first compound 0.03 µM): 2.44%
- viability, T/C (second compound 0.3 µM, first compound 0.0949 µM): 2.32%
- viability, T/C (second compound 0.3 µM, first compound 0.3 µM): 2.38%
